Source: paper PMC4158172 (European Journal of Clinical Pharmacology, 2014)
Values joined by “and” are separate entries in the source; they are usually repeats but may differ in a detail not shown here. Identical values can stand only once.

What was measured:
[1] = tested on: UGT2B7; parameters: method as in PMID 23132334; conditions: in vitro; cited from earlier work
[2] = tested on: CYP2B6; parameters: method as in PMID 23132334; conditions: in vitro; cited from earlier work
[3] = parameters: method as in PMID 23075918; conditions: DTG 50 mg twice daily with rifampin; cited from earlier work
[4] = DTG steady-state plasma pharmacokinetics, interaction with TPV/r
Experimental: Two studies were conducted in healthy volunteer subjects as judged by physical exam, medical history and laboratory testing. These studies are registered with ClinicalTrials.gov (NCT01068925; protocol number ING113096 and NCT01098526; protocol number ING114005). Adult men and women of non-childbearing potential were enrolled. Subjects were excluded if they tested positive for HIV or hepatitis C antibodies or hepatitis B surface antigen. Subjects were not allowed to receive any prescription or non-prescription drugs, including vitamins or herbal products, within 7 days of dosing and throughout the study.
This was a phase I, open-label, single-sequence, three-period, steady-state study. Eighteen subjects received DTG 50 mg q24h for 5 days (period 1). […] There was no washout between treatment periods. All doses were administered with a moderate-fat meal.
Dolutegravir and EFV were measured in plasma samples using validated methods, which consisted of extraction from plasma by protein precipitation with acetonitrile containing [^15N^2H7]dolutegravir or [^2H4]-efavirenz as the internal standards, respectively. The plasma extracts were injected onto a 2.1 × 50 mm 3.5-micron XBridge™ C18 column (Waters Associates, Milford, MA, USA). Dolutegravir was eluted with a mobile phase consisting of 40 % acetonitrile in aqueous 0.1 % formic acid, and EFV was eluted with a mobile phase consisting of acetonitrile/0.1 % formic acid (65 % v/v) in a 5-mM ammonium acetate buffer containing 0.1 % acetic acid (35 % v/v). The eluates were detected by using a Sciex API 4000™ (AB Sciex, Framingham, MA, USA) equipped with a TurboIonSpray® ionisation source with multiple reaction monitoring (DTG positive ion mode m/z 420 > 277; internal standard m/z 428 > 277; EFV negative ion mode m/z 314 > 243; internal standard m/z 318 > 247). Data acquisition and processing were performed with Analyst 1.4.2 software (AB Sciex), and linear regression analysis calculations were performed using the Study Management System, SMS™ 2000 v.2.2 (GlaxoSmithKline, Research Triangle Park, NC, USA). The calibration range for DTG was 0.020 to 20 μg/mL and for EFV was 0.10 to 20 μg/mL. Quality control samples prepared separately at three concentrations were stored with study samples and analysed with each batch of samples against separately prepared calibration standards.
A non-compartmental PK analysis of the concentration-time data was performed with WinNonlin (version 5.2, Pharsight Corporation, Mountain View, CA, USA). Plasma PK parameters for both DTG and EFV were calculated using actual recorded times for each treatment. Parameters that were determined included AUC from time zero to the end of the dosage interval (AUC(0–τ)), maximum observed plasma concentration (C max), the time of maximum observed plasma concentration (T max) and plasma concentration at the end of the dosing interval (C τ).
Statistical analyses were performed on the log-transformed PK parameters: AUC(0–τ), C τ and C max. […] Efavirenz PK data were compared with historical data. Subject was fitted as a random effect and treatment was fitted as a fixed effect in the model. The ratio of geometric least-squares means and associated 90 % confidence intervals were estimated for the PK parameters of interest.

[5] = tested on: CYP3A4; conditions: cited from earlier work
[6] = both, human, plasma, oral, 50 mg
[7] = co-administration with TPV/r 500/200 mg q12h

GLS mean ratio (90 % CI) of AUC(0–τ) ([4]; DTG+TPV/r vs DTG alone, n=14): 0.409 (0.379, 0.443)
GLS mean ratio (90 % CI) of C max ([4]; DTG+TPV/r vs DTG alone, n=14): 0.535 (0.500, 0.572)
GLS mean ratio (90 % CI) of C τ ([4]; DTG+TPV/r vs DTG alone, n=14): 0.239 (0.212, 0.270)
Tmax ([4]; both, human, in vivo, 50 mg): 3 h
AUC [4, 6]: 64500 ng·h/mL
Cmax [4, 6]: 4530 ng/mL
concentration at 24 h [4, 6]: 1480 ng/mL
decrease in plasma DTG AUC(0–τ) [4, 7]: 59%
decrease in plasma DTG C max [4, 7]: 46%
decrease in plasma DTG C τ [4, 7]: 76% and 75%
Compound: C[C@@H]1CCO[C@H]2Cn3cc(C(=O)NCc4ccc(F)cc4F)c(=O)c(O)c3C(=O)N12 [DTG, Dolutegravir]
direct inhibition of UGT2B7 [1]: minimal or no direct inhibition
induction of CYP2B6 [2]: not an inducer
C τ higher than with DTG 50 mg once daily alone [3]: 22%
induction of CYP3A4 [5]: not an inducer
